Experimental data reported in US20190169691A1, “HERITABLE EPIGENETIC MODIFICATIONS AS MARKERS OF CHEMOTHERAPY EXPOSURE” (Washington State University, priority 2016, published 2019).
Several values for one entry are separate records, joined by “and”; a condition that tells them apart may be missing. Equal entries are not always repeated.

Tested on: sperm
Assay: Semen analysis: sperm number and seminal fluid parameters (CASA) after adolescent chemotherapy
Type: in vivo, human
Details: individual adult male osteosarcoma survivors, semen collected approximately ten years after chemotherapy at 14-20 years of age
Text: The patients were 19-30 year-old male survivors of osteosarcoma recruited from the Seattle Children's Hospital in Seattle Wash. and four collaborating institutions (Children's Hospital of Pennsylvania, Philadelphia, Pa.; Miller Children's, Long Beach, Calif.; Children's Hospital, University of Minnesota, Minneapolis, Minn.; and Children's Hospital, Vanderbilt University, Nashville, Tenn.). These men had been treated for their disease with cisplatin-based chemotherapy regimens, including ifosfamide in some cases, when they were 14-20 years of age. Each patient was recruited by in-clinic or mail recruitment protocols. […]
Each patient and control was asked to provide a semen sample via home seminal fluid collection, which we used to allow for ease of subject participation since the sample can be obtained without the individual traveling to a laboratory. […] For sperm concentration (per ml), each participant's semen was diluted and assessed by CASA (Computer Assisted Sperm Analysis). […] Although sperm motility was not assessed (because it requires a fresh sample), count and morphology data nonetheless provide a great deal of information regarding spermatogenesis and abnormalities and both are associated with an increased risk of infertility. […]

SMILES: N.N.[Cl][Pt][Cl] [Cisplatin, cisplatin]
- Sperm # (Total Millions): 100.2 Total Millions and 170.5 Total Millions and 178 Total Millions and 7.34 Total Millions and 21 Total Millions and 49 Total Millions and 55 Total Millions
